Data: patent US11884687B2, “Boronated multifunctional targeting drug conjugates, their uses and methods for their preparation” (Hovione Scientia Limited, priority 2017, dated 2024)
pIC50: −log10 of the molar value.

What was measured:
[1] = tested on: MDA-MB-231 human breast cancer cells; test: MTS cell viability assay (MDA-MB-231); format: cell-based; details: folate-receptor-positive MDA-MB-231 cells
4T1 = test: MTS cell viability assay (4T1); format: cell-based; details: Mus musculus, 4T1 cells
[2] = in vivo; cited from earlier work

pIC50 ([1]; Homo sapiens) | pIC50 (4T1) | Structure (SMILES) | pIC50 [1] | LD50 [2] [mg/kg]
< 7.00 | 6.17 | COCCOCCOCCOc1ccc2c(c1)C(C)=[N+]1c3ccc(C(=O)NCCN=[N+]=[N-])cc3O[B-]1([C@H](CC(C)C)NC(=O)[C@@H](Cc1ccccc1)NC(=O)c1cnccn1)O2 (stereo partly shown) [B-complex 7] |  | 
 |  | COCCOCCOCCOc1ccc2c(c1)C(C)=[N+]1c3ccc(C(=O)NCCn4nnc5c4CC[C@H]4[C@@H](CC5)[C@H]4COC(=O)NCCNC(=O)CCC(NC(=O)c4ccc(NCc5cnc6nc(N)[nH]c(=O)c6n5)cc4)C(=O)O)cc3O[B-]1([C@H](CC(C)C)NC(=O)[C@@H](Cc1ccccc1)NC(=O)c1cnccn1)O2 (stereo partly shown) [B-complex 8] | 7.17 | 
< 7.00 | 5.14 | CC1=[N+]2c3ccc(C(=O)NCCOCCOCCOCCN=[N+]=[N-])cc3O[B-]2([C@H](CC(C)C)NC(=O)[C@@H](Cc2ccccc2)NC(=O)c2cnccn2)Oc2ccc(OCCOCCOCCOCCN=[N+]=[N-])cc21 (stereo partly shown) [B-complex 9] |  | 
 |  | CC1=[N+]2c3ccc(C(=O)NCCOCCOCCOCCn4nnc5c4CCC4C(CC5)[C@@H]4COC(=O)NCCNC(=O)CC[C@H](NC(=O)c4ccc(NCc5cnc6nc(N)[nH]c(=O)c6n5)cc4)C(=O)O)cc3O[B-]2([C@H](CC(C)C)NC(=O)[C@@H](Cc2ccccc2)NC(=O)c2cnccn2)Oc2ccc(OCCOCCOCCOCCn3nnc4c3CC[C@H]3[C@@H](CC4)[C@H]3COC(=O)NCCNC(=O)CC[C@H](NC(=O)c3ccc(NCc4cnc5nc(N)[nH]c(=O)c5n4)cc3)C(=O)O)cc21 (stereo partly shown) [B-complex 10] | 7.21 | 
 |  | [Cl-].[Na+] [table salt] |  | 3000
